Experimental data published in ChEMBL document CHEMBL5465560, “Selectivity Literature for EUbOPEN Chemogenomic Library” (2024).

Columns and labels:
[1] = target: T1, Tyrosine-protein kinase ABL2 (Homo sapiens, UniProt P42684); assay: (§1) Selectivity interaction (Radiometric assay (Reaction Biology)) EUB0000121b ABL2; conditions: at 10 µM
[2] = target: T1, Tyrosine-protein kinase ABL2; assay: as §1
[3] = target: Calcium/calmodulin-dependent protein kinase type IV (Homo sapiens, UniProt Q16566); assay: Selectivity interaction (Radiometric assay (Reaction Biology)) EUB0000121b CAMK4
[4] = target: CDK1/Cyclin E (Homo sapiens) (UniProt P06493+P24864); assay: Selectivity interaction (NanoBRET assay in HEK293T cells) EUB0000121b CDK1; format: cell-based; conditions: HEK-293T, at 10 µM
[5] = target: CDK10/Cyclin L2 (Homo sapiens) (UniProt Q15131+Q96S94); assay: Selectivity interaction (NanoBRET assay in HEK293T cells) EUB0000121b CDK10; format: cell-based; conditions: HEK-293T, at 10 µM
[6] = target: CDK11A/Cyclin L2 (Homo sapiens) (UniProt Q9UQ88+Q96S94); assay: Selectivity interaction (NanoBRET assay in HEK293T cells) EUB0000121b CDK11A; format: cell-based; conditions: HEK-293T, at 10 µM
[7] = target: CDK11B/Cyclin L2 (Homo sapiens) (UniProt P21127+Q96S94); assay: Selectivity interaction (NanoBRET assay in HEK293T cells) EUB0000121b CDK11B; format: cell-based; conditions: HEK-293T, at 10 µM
[8] = target: CDK12/Cyclin K (Homo sapiens) (UniProt O75909+Q9NYV4); assay: Selectivity interaction (NanoBRET assay in HEK293T cells) EUB0000121b CDK12; format: cell-based; conditions: HEK-293T, at 10 µM
[9] = target: Cyclin-dependent kinase 13/Cyclin-K (Homo sapiens) (UniProt Q14004+O75909); assay: Selectivity interaction (NanoBRET assay in HEK293T cells) EUB0000121b CDK13; format: cell-based; conditions: HEK-293T, at 10 µM
[10] = target: Cyclin-dependent kinase 14/Cyclin-Y (Homo sapiens) (UniProt O94921+Q8ND76); assay: Selectivity interaction (NanoBRET assay in HEK293T cells) EUB0000121b CDK14; format: cell-based; conditions: HEK-293T, at 10 µM
[11] = target: CDK15/Cyclin Y (Homo sapiens) (UniProt Q96Q40+Q8ND76); assay: Selectivity interaction (NanoBRET assay in HEK293T cells) EUB0000121b CDK15; format: cell-based; conditions: HEK-293T, at 10 µM
[12] = target: Cyclin-Y/Cyclin-dependent kinase 16 (Homo sapiens) (UniProt Q00536+Q8ND76); assay: Selectivity interaction (NanoBRET assay in HEK293T cells) EUB0000121b CDK16; format: cell-based; conditions: HEK-293T, at 10 µM
[13] = target: CDK17/Cyclin-Y (Homo sapiens) (UniProt Q00537+Q8ND76); assay: Selectivity interaction (NanoBRET assay in HEK293T cells) EUB0000121b CDK17; format: cell-based; conditions: HEK-293T, at 10 µM
[14] = target: CDK18/Cyclin Y (Homo sapiens) (UniProt Q07002+Q8ND76); assay: Selectivity interaction (NanoBRET assay in HEK293T cells) EUB0000121b CDK18; format: cell-based; conditions: HEK-293T, at 10 µM
[15] = target: Cyclin-C/Cyclin-dependent kinase 19 (Homo sapiens) (UniProt Q9BWU1+P24863); assay: Selectivity interaction (NanoBRET assay in HEK293T cells) EUB0000121b CDK19; format: cell-based; conditions: HEK-293T, at 10 µM
[16] = target: Cyclin-dependent kinase 2/cyclin E1 (Homo sapiens) (UniProt P24864+P24941); assay: Selectivity interaction (NanoBRET assay in HEK293T cells) EUB0000121b CDK2; format: cell-based; conditions: HEK-293T, at 10 µM
[17] = target: Cyclin-dependent kinase 2/cyclin A (Homo sapiens, UniProt P24941); assay: Selectivity interaction (LanthaScreen Eu Kinase Binding Assay (Invitrogen)) EUB0000121b CDK2; format: protein-complex assay
[18] = target: CDK20/Cyclin H (Homo sapiens) (UniProt P51946+Q8IZL9); assay: Selectivity interaction (NanoBRET assay in HEK293T cells) EUB0000121b CDK20; format: cell-based; conditions: HEK-293T, at 10 µM
[19] = target: CDK3/Cyclin E (Homo sapiens) (UniProt P24864+Q00526); assay: Selectivity interaction (NanoBRET assay in HEK293T cells) EUB0000121b CDK3; format: cell-based; conditions: HEK-293T, at 10 µM
[20] = target: Cyclin-dependent kinase 4/cyclin D1 (Homo sapiens) (UniProt P11802+P24385); assay: Selectivity interaction (NanoBRET assay in HEK293T cells) EUB0000121b CDK4; format: cell-based; conditions: HEK-293T, at 10 µM
[21] = target: Cyclin-dependent kinase 5/CDK5 activator 1 (Homo sapiens) (UniProt Q00535+Q15078); assay: Selectivity interaction (NanoBRET assay in HEK293T cells) EUB0000121b CDK5; format: cell-based; conditions: HEK-293T, at 10 µM
[22] = target: CDK6/cyclin D1 (Homo sapiens) (UniProt P24385+Q00534); assay: Selectivity interaction (NanoBRET assay in HEK293T cells) EUB0000121b CDK6; format: cell-based; conditions: HEK-293T, at 10 µM
CDK6/cyclin D3 = CDK6/cyclin D3 (Homo sapiens, UniProt Q00534); assay: Selectivity interaction ( In-vitro potency (TR-FRET-based LANCE Ultra assay)) EUB0000121b CDK6; format: protein-complex assay
[23] = target: Cyclin-dependent kinase 7 (Homo sapiens, UniProt P50613); assay: Selectivity interaction (NanoBRET assay in HEK293T cells) EUB0000121b CDK7; format: cell-based; conditions: HEK-293T, at 10 µM
CDK7/Cyclin H/MNAT1 [24] = target: T2, CDK7/Cyclin H/MNAT1 (Homo sapiens, UniProt P50613); assay: Selectivity interaction (LanthaScreen Eu Kinase Binding Assay (Invitrogen)) EUB0000121b CDK7; format: protein-complex assay
CDK7/Cyclin H/MNAT1 [25] = target: T2, CDK7/Cyclin H/MNAT1; assay: Selectivity interaction ( In-vitro potency (TR-FRET-based LANCE Ultra assay)) EUB0000121b CDK7; format: protein-complex assay
[26] = target: CDK8/Cyclin C (Homo sapiens) (UniProt P49336+P24863); assay: Selectivity interaction (NanoBRET assay in HEK293T cells) EUB0000121b CDK8; format: cell-based; conditions: HEK-293T, at 10 µM
[27] = target: CDK9/Cyclin K (Homo sapiens) (UniProt P50750+O75909); assay: Selectivity interaction (NanoBRET assay in HEK293T cells) EUB0000121b CDK9; format: cell-based; conditions: HEK-293T, at 10 µM
[28] = target: T3, Glycogen synthase kinase-3 alpha (Homo sapiens, UniProt P49840); assay: (§2) Selectivity interaction (Radiometric assay (Reaction Biology)) EUB0000121b GSK3A; conditions: at 10 µM
Target sequence in this assay (P49840 2-483 limits assumed): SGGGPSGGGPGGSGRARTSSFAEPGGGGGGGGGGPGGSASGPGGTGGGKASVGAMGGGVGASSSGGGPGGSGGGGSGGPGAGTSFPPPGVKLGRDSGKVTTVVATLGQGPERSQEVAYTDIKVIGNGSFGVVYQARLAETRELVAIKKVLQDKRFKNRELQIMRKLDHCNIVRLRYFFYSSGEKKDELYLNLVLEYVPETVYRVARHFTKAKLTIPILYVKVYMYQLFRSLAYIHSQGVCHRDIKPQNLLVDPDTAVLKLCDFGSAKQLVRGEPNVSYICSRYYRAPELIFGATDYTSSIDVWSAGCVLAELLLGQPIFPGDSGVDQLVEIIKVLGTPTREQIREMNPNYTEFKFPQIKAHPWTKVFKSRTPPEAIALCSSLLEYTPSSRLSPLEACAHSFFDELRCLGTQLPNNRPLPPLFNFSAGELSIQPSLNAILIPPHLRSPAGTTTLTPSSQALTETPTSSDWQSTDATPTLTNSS

[29] = target: T3, Glycogen synthase kinase-3 alpha; assay: as §2
[30] = target: T4, Mitogen-activated protein kinase kinase kinase kinase 4 (Homo sapiens, UniProt O95819); assay: (§3) Selectivity interaction (Radiometric assay (Reaction Biology)) EUB0000121b MAP4K4; conditions: at 10 µM
[31] = target: T4, Mitogen-activated protein kinase kinase kinase kinase 4; assay: as §3
Target sequence in this assay (O95819 whole entry): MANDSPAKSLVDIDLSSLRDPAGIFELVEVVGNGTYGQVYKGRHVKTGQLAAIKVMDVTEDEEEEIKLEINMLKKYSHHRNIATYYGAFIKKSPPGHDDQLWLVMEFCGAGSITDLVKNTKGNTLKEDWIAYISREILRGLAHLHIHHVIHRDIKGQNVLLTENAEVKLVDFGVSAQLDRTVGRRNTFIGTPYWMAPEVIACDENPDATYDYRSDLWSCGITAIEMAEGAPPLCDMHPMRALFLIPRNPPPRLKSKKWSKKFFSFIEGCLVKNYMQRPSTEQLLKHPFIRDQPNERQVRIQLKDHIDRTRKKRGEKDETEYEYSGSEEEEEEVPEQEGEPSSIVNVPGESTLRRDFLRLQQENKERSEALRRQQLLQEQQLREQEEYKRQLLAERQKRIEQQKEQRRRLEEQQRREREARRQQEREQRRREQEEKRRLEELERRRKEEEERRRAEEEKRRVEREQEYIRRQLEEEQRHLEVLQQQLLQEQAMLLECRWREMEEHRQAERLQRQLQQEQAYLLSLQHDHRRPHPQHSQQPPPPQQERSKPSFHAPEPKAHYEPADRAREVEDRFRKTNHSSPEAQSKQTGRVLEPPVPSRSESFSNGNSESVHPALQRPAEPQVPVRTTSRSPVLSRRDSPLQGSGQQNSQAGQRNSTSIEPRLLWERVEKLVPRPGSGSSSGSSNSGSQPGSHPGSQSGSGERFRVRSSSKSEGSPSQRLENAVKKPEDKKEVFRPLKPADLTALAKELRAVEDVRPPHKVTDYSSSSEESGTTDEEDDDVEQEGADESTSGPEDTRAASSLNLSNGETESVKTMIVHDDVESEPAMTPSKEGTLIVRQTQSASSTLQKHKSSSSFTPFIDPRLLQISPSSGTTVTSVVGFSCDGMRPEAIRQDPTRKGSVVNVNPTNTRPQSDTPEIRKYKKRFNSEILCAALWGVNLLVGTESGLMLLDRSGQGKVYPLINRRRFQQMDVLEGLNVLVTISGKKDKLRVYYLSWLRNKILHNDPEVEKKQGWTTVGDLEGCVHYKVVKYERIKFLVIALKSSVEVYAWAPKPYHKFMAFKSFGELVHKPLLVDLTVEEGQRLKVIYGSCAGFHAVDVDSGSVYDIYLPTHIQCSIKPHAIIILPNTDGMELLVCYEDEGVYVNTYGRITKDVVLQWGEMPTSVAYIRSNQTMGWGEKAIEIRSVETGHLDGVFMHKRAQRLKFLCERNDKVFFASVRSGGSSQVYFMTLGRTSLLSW

[32] = target: T5, Histone-arginine methyltransferase CARM1 (Homo sapiens, UniProt Q86X55); assay: Selectivity interaction (Western blot assay (PRMT4 dependent BAF155 asymmetric arginine dimethylation)) EUB0000236b CARM1
T5 sequence (Q86X55 whole entry): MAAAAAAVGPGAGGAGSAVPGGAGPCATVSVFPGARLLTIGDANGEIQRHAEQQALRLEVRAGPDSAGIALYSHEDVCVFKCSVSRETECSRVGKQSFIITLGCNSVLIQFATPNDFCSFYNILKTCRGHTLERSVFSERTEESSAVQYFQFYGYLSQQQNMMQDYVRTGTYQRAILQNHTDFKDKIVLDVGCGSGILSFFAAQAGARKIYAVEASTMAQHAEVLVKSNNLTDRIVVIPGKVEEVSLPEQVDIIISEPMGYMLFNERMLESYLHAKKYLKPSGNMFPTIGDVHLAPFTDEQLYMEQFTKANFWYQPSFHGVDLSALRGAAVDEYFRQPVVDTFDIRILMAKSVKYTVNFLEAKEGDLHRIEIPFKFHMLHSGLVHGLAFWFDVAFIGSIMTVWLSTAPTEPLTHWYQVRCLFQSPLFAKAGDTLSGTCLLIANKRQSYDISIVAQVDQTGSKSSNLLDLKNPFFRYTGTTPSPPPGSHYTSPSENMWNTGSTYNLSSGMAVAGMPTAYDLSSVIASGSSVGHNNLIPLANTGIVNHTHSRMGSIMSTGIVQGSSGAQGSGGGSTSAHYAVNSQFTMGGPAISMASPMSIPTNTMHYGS

[33] = target: Protein arginine N-methyltransferase 5 (Homo sapiens, UniProt O14744); assay: Selectivity interaction (Western blot assay (PRMT5 dependent SmB symmetric arginine dimethylation)) EUB0000236b PRMT5
[34] = target: Protein arginine N-methyltransferase 1 (Homo sapiens, UniProt Q99873); assay: Selectivity interaction (Western blot assay (PRMT1 dependent H4R3 asymmetric arginine dimethylation)) EUB0000236b PRMT1
[35] = target: Protein arginine N-methyltransferase 6 (Homo sapiens, UniProt Q96LA8); assay: Selectivity interaction (Western blot assay (PRMT6 dependent H4R3 asymmetric arginine dimethylation)) EUB0000236b PRMT6
[36] = target: T6, Protein arginine N-methyltransferase 9 (Homo sapiens, UniProt Q6P2P2); assay: Selectivity interaction (Western blot assay (PRMT9 dependent SAP145 […] arginine dimethylation)) EUB0000236b PRMT9
T6 sequence (Q6P2P2 whole entry): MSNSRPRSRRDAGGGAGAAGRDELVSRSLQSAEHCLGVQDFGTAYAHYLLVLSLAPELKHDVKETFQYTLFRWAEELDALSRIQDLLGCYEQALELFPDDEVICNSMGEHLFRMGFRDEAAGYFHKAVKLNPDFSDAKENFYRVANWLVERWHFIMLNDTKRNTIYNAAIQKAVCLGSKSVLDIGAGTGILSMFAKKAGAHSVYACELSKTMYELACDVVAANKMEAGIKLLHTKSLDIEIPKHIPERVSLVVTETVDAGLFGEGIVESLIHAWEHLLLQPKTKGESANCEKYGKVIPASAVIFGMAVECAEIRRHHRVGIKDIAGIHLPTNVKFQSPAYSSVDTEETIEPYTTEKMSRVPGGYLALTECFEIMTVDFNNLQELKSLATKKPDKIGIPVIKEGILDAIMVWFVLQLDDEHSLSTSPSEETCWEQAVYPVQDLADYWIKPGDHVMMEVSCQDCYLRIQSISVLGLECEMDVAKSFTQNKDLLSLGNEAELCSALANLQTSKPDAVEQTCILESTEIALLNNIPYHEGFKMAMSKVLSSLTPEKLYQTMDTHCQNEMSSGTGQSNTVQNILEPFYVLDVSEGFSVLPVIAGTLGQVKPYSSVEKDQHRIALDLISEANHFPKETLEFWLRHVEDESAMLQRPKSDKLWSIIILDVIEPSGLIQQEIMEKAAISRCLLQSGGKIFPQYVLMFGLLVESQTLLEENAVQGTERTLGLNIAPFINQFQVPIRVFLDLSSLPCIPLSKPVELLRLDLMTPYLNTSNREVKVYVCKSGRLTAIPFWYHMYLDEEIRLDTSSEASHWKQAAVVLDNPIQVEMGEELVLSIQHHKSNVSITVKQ

[37] = target: Histone-lysine N-methyltransferase, H3 lysine-79 specific (Homo sapiens, UniProt Q8TEK3); assay: Selectivity interaction (Western blot assay (DOT1L dependent H3K79 lysine dimethylation) ) EUB0000236b DOT1L

T2 sequence (P51946 whole entry): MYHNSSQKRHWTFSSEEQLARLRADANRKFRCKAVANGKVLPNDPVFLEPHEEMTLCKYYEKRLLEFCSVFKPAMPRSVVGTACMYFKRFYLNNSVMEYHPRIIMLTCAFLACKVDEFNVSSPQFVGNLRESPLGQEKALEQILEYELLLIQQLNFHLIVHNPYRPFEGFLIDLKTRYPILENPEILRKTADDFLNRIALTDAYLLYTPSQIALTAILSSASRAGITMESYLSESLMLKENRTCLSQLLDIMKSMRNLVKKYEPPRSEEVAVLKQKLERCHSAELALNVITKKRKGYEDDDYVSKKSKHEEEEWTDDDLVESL
T2 sequence (P50613 whole entry): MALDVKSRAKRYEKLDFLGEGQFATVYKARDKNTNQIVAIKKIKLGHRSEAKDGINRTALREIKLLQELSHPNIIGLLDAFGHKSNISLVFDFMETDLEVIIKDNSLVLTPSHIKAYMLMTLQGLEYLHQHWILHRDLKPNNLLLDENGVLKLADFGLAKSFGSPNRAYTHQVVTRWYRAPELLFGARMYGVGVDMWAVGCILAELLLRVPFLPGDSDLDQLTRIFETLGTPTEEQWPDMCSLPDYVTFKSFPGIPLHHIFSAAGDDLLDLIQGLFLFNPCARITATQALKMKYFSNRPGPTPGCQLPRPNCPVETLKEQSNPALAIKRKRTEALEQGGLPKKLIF
T2 sequence (P51948 whole entry, further chain): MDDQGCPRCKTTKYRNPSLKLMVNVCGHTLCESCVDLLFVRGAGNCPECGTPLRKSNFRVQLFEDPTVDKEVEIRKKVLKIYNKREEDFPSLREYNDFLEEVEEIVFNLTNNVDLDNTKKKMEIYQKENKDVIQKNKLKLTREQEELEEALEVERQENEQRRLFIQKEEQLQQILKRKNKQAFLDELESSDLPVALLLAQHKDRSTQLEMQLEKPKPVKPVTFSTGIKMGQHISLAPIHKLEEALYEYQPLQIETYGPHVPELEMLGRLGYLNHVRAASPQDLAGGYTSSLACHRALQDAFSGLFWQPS
T1 sequence (P42684 whole entry): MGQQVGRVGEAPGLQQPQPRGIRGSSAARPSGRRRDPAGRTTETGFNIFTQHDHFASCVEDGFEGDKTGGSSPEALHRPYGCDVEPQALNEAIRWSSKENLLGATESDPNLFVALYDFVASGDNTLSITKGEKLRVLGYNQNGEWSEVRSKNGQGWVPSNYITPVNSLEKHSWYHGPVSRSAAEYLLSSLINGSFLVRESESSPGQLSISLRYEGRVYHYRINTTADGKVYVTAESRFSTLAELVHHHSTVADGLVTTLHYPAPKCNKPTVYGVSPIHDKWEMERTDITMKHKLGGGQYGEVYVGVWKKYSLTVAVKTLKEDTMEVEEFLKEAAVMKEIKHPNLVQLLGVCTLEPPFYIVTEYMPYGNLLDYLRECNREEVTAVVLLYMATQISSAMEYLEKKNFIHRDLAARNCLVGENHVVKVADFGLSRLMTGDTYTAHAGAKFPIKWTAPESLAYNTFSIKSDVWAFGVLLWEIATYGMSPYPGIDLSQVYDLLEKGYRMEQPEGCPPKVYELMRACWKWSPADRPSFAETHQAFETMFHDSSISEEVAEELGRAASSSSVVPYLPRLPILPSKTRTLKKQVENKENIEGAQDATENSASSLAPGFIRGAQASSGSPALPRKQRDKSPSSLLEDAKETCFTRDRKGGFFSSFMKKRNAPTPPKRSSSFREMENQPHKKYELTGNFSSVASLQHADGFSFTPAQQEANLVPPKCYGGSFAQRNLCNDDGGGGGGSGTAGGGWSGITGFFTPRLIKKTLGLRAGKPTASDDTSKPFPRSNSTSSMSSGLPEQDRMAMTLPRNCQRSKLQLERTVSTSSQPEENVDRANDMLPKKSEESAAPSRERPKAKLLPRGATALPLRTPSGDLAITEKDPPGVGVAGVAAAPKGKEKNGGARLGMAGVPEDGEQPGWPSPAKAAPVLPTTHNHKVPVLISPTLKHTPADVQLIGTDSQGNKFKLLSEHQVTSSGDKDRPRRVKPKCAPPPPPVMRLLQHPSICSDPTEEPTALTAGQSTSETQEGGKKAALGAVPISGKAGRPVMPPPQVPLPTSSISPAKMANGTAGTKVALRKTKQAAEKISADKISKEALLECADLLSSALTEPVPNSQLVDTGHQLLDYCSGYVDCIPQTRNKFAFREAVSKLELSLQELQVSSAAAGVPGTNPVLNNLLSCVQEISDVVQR
CDK6/cyclin D3, sequence (P30281 whole entry): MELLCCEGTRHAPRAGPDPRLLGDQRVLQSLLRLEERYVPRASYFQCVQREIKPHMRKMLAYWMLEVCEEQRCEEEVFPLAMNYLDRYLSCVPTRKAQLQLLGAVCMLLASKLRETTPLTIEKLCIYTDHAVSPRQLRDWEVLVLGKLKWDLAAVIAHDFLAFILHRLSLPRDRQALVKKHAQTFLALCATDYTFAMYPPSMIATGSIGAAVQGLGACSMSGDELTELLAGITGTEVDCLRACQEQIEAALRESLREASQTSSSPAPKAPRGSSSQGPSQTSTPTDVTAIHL
CDK6/cyclin D3, sequence (Q00534 whole entry): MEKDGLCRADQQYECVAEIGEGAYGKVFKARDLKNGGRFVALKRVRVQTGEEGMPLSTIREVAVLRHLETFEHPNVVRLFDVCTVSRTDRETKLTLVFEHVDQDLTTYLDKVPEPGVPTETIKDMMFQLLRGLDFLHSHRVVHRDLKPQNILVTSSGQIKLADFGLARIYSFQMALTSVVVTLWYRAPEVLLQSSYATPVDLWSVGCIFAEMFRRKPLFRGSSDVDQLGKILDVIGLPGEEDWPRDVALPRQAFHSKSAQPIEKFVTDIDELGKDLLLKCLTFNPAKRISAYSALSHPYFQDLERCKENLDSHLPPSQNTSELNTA
Cyclin-dependent kinase 5/CDK5 activator 1 (Homo sapiens), sequence (Q00535 whole entry): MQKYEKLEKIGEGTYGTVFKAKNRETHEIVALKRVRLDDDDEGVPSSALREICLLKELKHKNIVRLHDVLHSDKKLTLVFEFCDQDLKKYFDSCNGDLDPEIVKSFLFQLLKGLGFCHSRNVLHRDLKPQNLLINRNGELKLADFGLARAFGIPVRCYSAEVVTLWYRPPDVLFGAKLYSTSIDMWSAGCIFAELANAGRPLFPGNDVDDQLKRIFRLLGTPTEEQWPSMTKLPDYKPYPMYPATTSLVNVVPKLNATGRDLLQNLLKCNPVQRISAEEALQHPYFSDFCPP
Cyclin-dependent kinase 5/CDK5 activator 1 (Homo sapiens), sequence (Q15078 99-307 partner limits assumed): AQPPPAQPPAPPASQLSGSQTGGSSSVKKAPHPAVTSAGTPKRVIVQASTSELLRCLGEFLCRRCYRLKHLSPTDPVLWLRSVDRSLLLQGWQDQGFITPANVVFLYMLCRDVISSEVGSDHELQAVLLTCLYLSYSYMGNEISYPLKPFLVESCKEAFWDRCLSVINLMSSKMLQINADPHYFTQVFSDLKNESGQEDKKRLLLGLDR

COc1ccccc1-c1cc(Nc2cccc(CS(N)(=O)=O)c2)ncn1
% of control [1]: 27%
IC50 [2]: 3.64 µM
IC50 [3]: > 20 µM
% of inhibition [4]: 31.6%
% of inhibition [5]: 6.6%
% of inhibition [6]: 7.5%
% of inhibition [7]: 10.2%
% of inhibition [8]: 22.1%
% of inhibition [9]: 10.2%
% of inhibition [10]: -2.3%
% of inhibition [11]: -1%
% of inhibition [12]: 14.8%
% of inhibition [13]: 19%
% of inhibition [14]: 8.7%
% of inhibition [15]: 11.4%
% of inhibition [16]: 18.7%
IC50 [17]: 1.01 µM
% of inhibition [18]: 14.5%
% of inhibition [19]: 27.7%
% of inhibition [20]: 44%
% of inhibition [21]: 11.4%
% of inhibition [22]: 38.7%
IC50 (CDK6/cyclin D3): > 10 µM
% of inhibition [23]: -9.3%
IC50 (CDK7/Cyclin H/MNAT1 [24]): 16 µM
IC50 (CDK7/Cyclin H/MNAT1 [25]): > 10 µM
% of inhibition [26]: 5.3%
% of inhibition [27]: 88.8%
% of control [28]: 9.5%
IC50 [29]: 1.46 µM
% of control [30]: 17.5%
IC50 [31]: 0.82 µM

CC1=C(C)C(=O)C(C(C)(C)CC(=O)N(CCCCSC[C@H]2O[C@@H](n3cnc4c(N)ncnc43)[C@@H]3OC(C)(C)O[C@@H]32)Cc2cccc(-c3ccc(Cl)cc3)c2)=C(C)C1=O
EC50 [32]: > 0.005 µM
EC50 [33]: > 0.005 µM
EC50 [34]: > 0.005 µM
EC50 [35]: > 0.005 µM
EC50 [36]: > 0.005 µM
EC50 [37]: > 0.005 µM
